Values quoted from earlier work, collected in patent USRE46284E1, “Method of administrating an anticancer drug containing α, α, α-trifluorothymidine and thymidine phosphorylase inhibitor” (TAIHO PHARMACEUTICAL CO., LTD., priority 2005, dated 2017).

Conditions: human, intravenous administration

- half-life in the blood: approximately 12 minutes
SMILES: O=c1[nH]c(=O)n([C@H]2C[C@H](O)[C@@H](CO)O2)cc1C(F)(F)F [FTD, α,α,α-trifluorothymidine]
